Assay results published in patent publication US20230406883A1, “COMPOUNDS AND THEIR USE IN TREATMENT OF TACHYKININ RECEPTOR MEDIATED DISORDERS” (Embark Biotech ApS, priority 2020, published 2023).
Values joined by “and” are separate entries in the source; they are usually repeats but may differ in a detail not shown here. Equal values may be shown once. Numbered stars: 1 amine (or outer) side, 2 acyl side, 3 side chain; on linkers, the order of the positions; unused ones are H or OH. Square brackets hold non-standard residues; d marks the D form. Peptide text beside a SMILES is read from it. * marks the point of attachment. C20 diacid = O=C(O)CCCCCCCCCCCCCCCCCCC(=O)*; C18 diacid = O=C(O)CCCCCCCCCCCCCCCCC(=O)*; C16 diacid = O=C(O)CCCCCCCCCCCCCCC(=O)*; γGlu = O=C(O)[C@H](CCC(=O)[*:2])N[*:1]; C14 diacid = O=C(O)CCCCCCCCCCCCC(=O)*; mTyr = N[C@@H](Cc1cccc(O)c1)C(=O)O; NMeL = CN[C@@H](CC(C)C)C(=O)O; hSer = N[C@@H](CCO)C(=O)O; Nle = CCCC[C@H](N)C(=O)O; AEEA = NCCOCCOCC(=O)O; Aib = CC(C)(N)C(=O)O

How the values were obtained:
Assay in all cases: IP3 assay (inositol trisphosphate, 3H-myoinositol) in transiently transfected COS-7 cells
Format in all cases: cell-based
[1] = molecular target: T1, hNK1R (Homo sapiens, UniProt P25103); details: COS-7 cells; for EC50: 0.2% ovalbumin buffer; for hNK1R, IP3 Efficacy: figure legends: percent of 10^-6 M NKA
T1 construct: host or cells: COS-7
T1 sequence (P25103 whole entry): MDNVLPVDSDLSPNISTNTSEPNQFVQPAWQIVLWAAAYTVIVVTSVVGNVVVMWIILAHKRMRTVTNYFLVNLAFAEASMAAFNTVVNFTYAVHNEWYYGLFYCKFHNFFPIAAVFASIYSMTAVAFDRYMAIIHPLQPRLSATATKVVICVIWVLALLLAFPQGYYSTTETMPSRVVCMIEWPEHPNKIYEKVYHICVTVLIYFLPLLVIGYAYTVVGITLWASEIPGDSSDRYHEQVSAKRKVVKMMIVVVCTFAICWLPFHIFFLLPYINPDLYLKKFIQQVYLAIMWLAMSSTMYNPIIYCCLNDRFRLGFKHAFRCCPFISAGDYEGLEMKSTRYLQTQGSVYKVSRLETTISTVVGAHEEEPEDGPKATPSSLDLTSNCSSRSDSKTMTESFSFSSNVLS
Method: (§1) Agonist-induced G-protein coupled receptor (GPCR) activation was measured by an Inositol-1,4,5-Trisphosphate [^3H] Radioreceptor Assay (IPs Assay). Assays were carried out using COS-7 cells transiently transfected by calcium phosphate transfection with a vector pcDNA3.1(+) encoding one of the indicated receptors (Genscript). Briefly, DNA mixed with CaCl2 (2 M) and TE-buffer (10 mM Tris-HCl, 1 mM EDTA, pH 7.5) was dropwise added to 2×HBS (50 mM HEPES, 280 mM NaCl, 1.5 mM NaH2PO4, pH 7.2) and incubated for 45 min at room temperature (22±2° C.). The mixture and a final concentration of 100 μM Chloroquine were added to the cells and left to incubate for 5 hours at 37° C. under standard cell culture conditions (10% CO2) before changing medium to fresh medium containing 5 μl/mL Myo-[2-^3H(N)]-inositol (labelling medium).
(§2) The IP3 assay takes advantage of the tachykinin receptors' ability to induce production of the inositol trisphosphate (IP3) second messenger upon agonist (ligand) binding on receptor expressing cells following an initial ^3H-inositol labelling period. In effect this means that production of the second messenger IP3 as a measure of receptor activity can be assessed by counting ^3H-activity.
(§3) Assay solutions used: Wash buffer (HBSS), Assay buffer (HBSS+10 mM LiCl and 0,2% w/v ovalbumin), Lysis buffer (10 mM formic acid), and SPA YSI beads (12.5 mg/ml in H2O). The assay was performed the day after transfection. Briefly, labelling medium was aspirated, and plates were washed ×1 in wash buffer before adding 100 μl assay buffer, pre-incubated for 30 min followed by 120 min incubation with agonist, both at 37° C. After incubation, plates were immediately placed on ice and the incubation medium was aspirated and 40 μl of 10 mM formic acid per well was added. Plates were incubated for at least 30 min on ice. 60 μl (1 mg/well) SPA YSI beads/well was pipetted into a solid white 96 wells plate and 35 μl of the lysis solution was transferred to the plate before covering plates with seal cover and shaking for 10 min. (max speed). Centrifuge plates and leave for 8 hours at room temperature before counting the plates in a MicroBeta plate counter (Perkin Elmer).

[2] = molecular target: T2, hNK2R (Homo sapiens, UniProt P21452); details: COS-7 cells; for EC50: 0.2% ovalbumin buffer; for hNK2R, IP3 Efficacy: figure legends: percent of 10^-6 M NKA
T2 construct: host or cells: COS-7
T2 sequence (P21452 1-398): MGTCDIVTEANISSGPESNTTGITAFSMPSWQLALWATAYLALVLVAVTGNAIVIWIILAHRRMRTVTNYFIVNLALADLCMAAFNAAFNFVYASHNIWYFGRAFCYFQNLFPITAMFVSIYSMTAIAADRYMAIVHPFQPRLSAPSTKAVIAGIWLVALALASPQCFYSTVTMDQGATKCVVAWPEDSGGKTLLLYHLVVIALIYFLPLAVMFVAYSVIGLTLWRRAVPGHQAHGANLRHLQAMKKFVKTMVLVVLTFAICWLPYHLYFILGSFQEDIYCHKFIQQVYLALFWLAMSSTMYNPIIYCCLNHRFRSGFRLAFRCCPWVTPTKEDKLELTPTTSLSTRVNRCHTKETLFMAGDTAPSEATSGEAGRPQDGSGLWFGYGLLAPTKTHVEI
Method: as §1, §2, §3

[3] = molecular target: T3, hNK3R (Homo sapiens, UniProt P29371); details: COS-7 cells; for EC50: 0.2% ovalbumin buffer, read-out: hNK3, IP3 EC50; for hNK3, IP3 Efficacy: figure legends: percent of 10^-6 M NKA
T3 construct: host or cells: COS-7
T3 sequence (P29371 1-465): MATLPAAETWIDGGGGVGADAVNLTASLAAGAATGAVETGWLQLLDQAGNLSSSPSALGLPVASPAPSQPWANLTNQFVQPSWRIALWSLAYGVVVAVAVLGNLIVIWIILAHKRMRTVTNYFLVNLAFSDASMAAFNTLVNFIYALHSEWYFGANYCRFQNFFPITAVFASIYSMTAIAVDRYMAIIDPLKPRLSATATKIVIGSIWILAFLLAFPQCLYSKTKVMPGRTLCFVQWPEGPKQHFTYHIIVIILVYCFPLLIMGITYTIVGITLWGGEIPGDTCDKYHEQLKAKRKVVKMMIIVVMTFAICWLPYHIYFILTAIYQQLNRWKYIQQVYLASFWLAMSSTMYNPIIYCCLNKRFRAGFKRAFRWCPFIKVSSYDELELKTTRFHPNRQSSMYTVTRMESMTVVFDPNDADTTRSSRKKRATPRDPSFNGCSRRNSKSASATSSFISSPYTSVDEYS
Method: as §1, §2, §3

SMILES	EC50 [1] [nM]	hNK1R, IP3 Efficacy [1]	EC50 [2]	hNK2R, IP3 Efficacy [2] [%]	EC50 [3] [nM]	hNK3, IP3 Efficacy [3] [%]
CCCC[C@H](NC(=O)[C@H](CC(C)C)N(C)C(=O)CNC(=O)[C@@H](NC(=O)[C@H](Cc1ccccc1)NC(=O)[C@H](CCCNC(=N)N)NC(=O)[C@H](CCC(=O)O)NC(=O)COCCOCCNC(=O)COCCOCCNC(=O)CC[C@H](NC(=O)CCCCCCCCCCCCCCCCC(=O)O)C(=O)O)C(C)C)C(N)=O [compound 337, *Glu;Arg;Phe;Val;Gly;NmLeu;Nle;NH2] ({C18 diacid-γGlu-AEEA-AEEA}-ERFVG[NMeL][Nle]-NH2)	23	70%	4 nM and 1.3 nM	80	43	100
CCCC[C@H](NC(=O)[C@H](CC(C)C)N(C)C(=O)CNC(=O)[C@@H](NC(=O)[C@H](Cc1ccc(O)cc1)NC(=O)[C@H](CCCNC(=N)N)NC(=O)[C@H](CCC(=O)O)NC(=O)COCCOCCNC(=O)COCCOCCNC(=O)CC[C@H](NC(=O)CCCCCCCCCCCCCCCCC(=O)O)C(=O)O)C(C)C)C(N)=O [compound 357, *Glu;Arg;Tyr;Val;Gly;NmLeu;Nle;NH2] ({C18 diacid-γGlu-AEEA-AEEA}-ERYVG[NMeL][Nle]-NH2)		50%	6.5 nM	90		10
CCCC[C@H](NC(=O)[C@H](CC(C)C)N(C)C(=O)CNC(=O)[C@@H](NC(=O)[C@H](Cc1ccc(O)cc1)NC(=O)[C@H](CCCCN)NC(=O)[C@H](CC(=O)O)NC(=O)COCCOCCNC(=O)COCCOCCNC(=O)CC[C@H](NC(=O)CCCCCCCCCCCCCCC(=O)O)C(=O)O)C(C)C)C(N)=O [compound 367, *Asp;Lys;Tyr;Val;Gly;NmLeu;Nle;NH2] ({C16 diacid-γGlu-AEEA-AEEA}-DKYVG[NMeL][Nle]-NH2)	~31000	20%	5.6 nM	75		0
CCCC[C@H](NC(=O)[C@H](CC(C)C)N(C)C(=O)CNC(=O)[C@@H](NC(=O)[C@H](Cc1ccc(O)cc1)NC(=O)[C@H](CCCCN)NC(=O)[C@H](CC(=O)O)NC(=O)COCCOCCNC(=O)COCCOCCNC(=O)CC[C@H](NC(=O)CCCCCCCCCCCCC(=O)O)C(=O)O)C(C)C)C(N)=O [compound 368, *Asp;Lys;Tyr;Val;Gly;NmLeu;Nle;NH2] ({C14 diacid-γGlu-AEEA-AEEA}-DKYVG[NMeL][Nle]-NH2)		0%	19 nM	70		0
COc1ccc(C[C@H](NC(=O)[C@H](CC(C)C)N(C)C(=O)CNC(=O)[C@@H](NC(=O)[C@H](Cc2ccccc2)NC(=O)[C@H](CCCCN)NC(=O)[C@H](CC(=O)O)NC(=O)COCCOCCNC(=O)COCCOCCNC(=O)CC[C@H](NC(=O)CCCCCCCCCCCCCCCCC(=O)O)C(=O)O)C(C)C)C(N)=O)cc1 [compound 370, *Asp;Lys;Phe;Val;Gly;NmLeu;4-MeOPhe;NH2] ({C18 diacid-γGlu-AEEA-AEEA}-DKFVG[NMeL]Y(Me)-NH2)		20%	10 nM	90		0
CCCC[C@H](NC(=O)[C@H](CC(C)C)NC(=O)C(C)(C)NC(=O)[C@@H](NC(=O)[C@H](Cc1ccccc1)NC(=O)[C@H](CCCCN)NC(=O)[C@H](CC(=O)O)NC(=O)COCCOCCNC(=O)COCCOCCNC(=O)CC[C@H](NC(=O)CCCCCCCCCCCCCCCCC(=O)O)C(=O)O)C(C)C)C(N)=O [compound 373, *Asp;Lys;Phe;Val;Aib;Leu;Nle;NH2] ({C18 diacid-γGlu-AEEA-AEEA}-DKFV[Aib]L[Nle]-NH2)	~136	66%	4.3 nM	89		0
CCCC[C@H](NC(=O)[C@H](CC(C)C)N(C)C(=O)CNC(=O)[C@@H](NC(=O)[C@H](Cc1ccc(O)cc1)NC(=O)[C@H](CCCCN)NC(=O)[C@@H](N)CC(=O)O)C(C)C)C(N)=O [compound 374, Asp;Lys;Tyr;Val;Gly;NmLeu;Nle;NH2] (H-DKYVG[NMeL][Nle]-NH2)	200	50%	5.8 nM	90		0
COCC[C@H](NC(=O)[C@H](CC(C)C)N(C)C(=O)CNC(=O)[C@@H](NC(=O)[C@H](Cc1ccc(O)cc1)NC(=O)[C@H](CCCCN)NC(=O)[C@H](CCC(=O)O)NC(=O)COCCOCCNC(=O)COCCOCCNC(=O)CC[C@H](NC(=O)CCCCCCCCCCCCCCCCC(=O)O)C(=O)O)[C@@H](C)O)C(N)=O [compound 381, *Glu;Lys;Tyr;Thr;Gly;NmLeu;Metox;NH2] ({C18 diacid-γGlu-AEEA-AEEA}-EKYTG[NMeL][hSer](Me)-NH2)		0%	9.3 nM	85		0

Next, values leading:

EC50 [1] [nM]	hNK1R, IP3 Efficacy [1]	EC50 [2]	hNK2R, IP3 Efficacy [2] [%]	EC50 [3] [nM]	hNK3, IP3 Efficacy [3] [%]	SMILES
36	70% and 72%	1.6 nM	80	113	100	CCCC[C@H](NC(=O)[C@H](CC(C)C)N(C)C(=O)CNC(=O)[C@@H](NC(=O)[C@H](Cc1ccccc1)NC(=O)[C@H](CCCCN)NC(=O)[C@H](CCC(=O)O)NC(=O)COCCOCCNC(=O)COCCOCCNC(=O)CC[C@H](NC(=O)CCCCCCCCCCCCCCCCC(=O)O)C(=O)O)C(C)C)C(N)=O [compound 335, *Glu;Lys;Phe;Val;Gly;NmLeu;Nle;NH2] ({C18 diacid-γGlu-AEEA-AEEA}-EKFVG[NMeL][Nle]-NH2)
200	70%	2.3 nM	100	~47000	60	CCCC[C@H](NC(=O)[C@H](CC(C)C)N(C)C(=O)CNC(=O)[C@@H](NC(=O)[C@H](Cc1cccc(O)c1)NC(=O)[C@H](CCCCN)NC(=O)[C@H](CC(=O)O)NC(=O)COCCOCCNC(=O)COCCOCCNC(=O)CC[C@H](NC(=O)CCCCCCCCCCCCCCCCC(=O)O)C(=O)O)C(C)C)C(N)=O [compound 361, *Asp;Lys;3-OH-Phe;Val;Gly;NmLeu;Nle;NH2] ({C18 diacid-γGlu-AEEA-AEEA}-DK[mTyr]VG[NMeL][Nle]-NH2)
12	110%	0.5 nM	100	~50000	35	CCCC[C@H](NC(=O)[C@H](CC(C)C)N(C)C(=O)CNC(=O)[C@@H](NC(=O)[C@H](Cc1ccccc1)NC(=O)[C@H](CCCCN)NC(=O)[C@@H](N)CC(=O)O)C(C)C)C(N)=O [compound 375, Asp;Lys;Phe;Val;Gly;NmLeu;Nle;NH2]
58	20%	1.5 nM	90	~160	30	CCCC[C@H](NC(=O)[C@H](CC(C)C)N(C)C(=O)CNC(=O)[C@@H](NC(=O)[C@H](Cc1ccc(O)cc1)NC(=O)[C@H](CCCCN)NC(=O)[C@H](CC(=O)O)NC(=O)COCCOCCNC(=O)COCCOCCNC(=O)CC[C@H](NC(=O)CCCCCCCCCCCCCCCCCCC(=O)O)C(=O)O)C(C)C)C(N)=O [compound 380, *Asp;Lys;Tyr;Val;Gly;NmLeu;Nle;NH2] ({C20 diacid-γGlu-AEEA-AEEA}-DKYVG[NMeL][Nle]-NH2)
